Assay: effective fugacity rate on heating with hot air current from ring heater and fan (FIG. 1 apparatus)
Type: physicochemical
Details: Table 5, Comparative Example 1: without blowing agent
Procedure: This invention will be described below in greater detail with reference to examples, in which the effective fugacity rates of active ingredients are determined by volatilizing the ingredient within a closed container, passing the air within the container through a solvent which completely dissolves the active ingredients, such as benzene, acetone, water, chloroform or dichloromethane to cause the solvent to absorb the vaporized ingredient in the air, concentrating the solvent and subjecting the concentrate to gas chromatography. The fugacity rate is expressed in terms of the ratio in percent of the quantity of the vaporized active ingredient to the quantity of the ingredient initially admixed with a blowing agent.
Each of the specimen mixtures of insecticide and blowing agent listed in Table 2 is placed in an inner case 8 (60 cm^3 in capacity) fitted in an apparatus (15 cm in diameter and 15 cm in height) provided in its passage 2 with the same ring heater 6 as shown in FIG. 1.
The ring heater 6 (power 400 W) and a fan 4 (with 4 blades) are energized to produce a hot air current. The fan 4 is driven at 3000 r.p.m. The mixture is heated for about 5 minutes (up to a temperature of about 300° C.) with the hot air current to thermally decompose the blowing agent and diffuse the vapor of the insecticide. […]

**Q.** For `CC(C)=CC1C(C(=O)OCc2coc(Cc3ccccc3)c2)C1(C)C` (stereo not shown) [Specimen 27], which effective fugacity rate is on record?
**A.** The effective fugacity rate was 0.4%.
